Laboratory results as given in patent US20250313575A1, “MACROCYCLES AS LRRK2 INHIBITORS, PHARMACEUTICAL COMPOSITIONS, AND USES THEREOF” (Merck Sharp & Dohme LLC, priority 2022, published 2025).

Biological target: GST-tagged truncated human mutant G2019S LRRK2 (Homo sapiens (Human), UniProt Q5S007, G2019S)
Test: LRRK2 G2019S Km ATP LanthaScreen assay
Assay type: biochemical
Conditions: G2019S LRRK2, 134 μM ATP (Km ATP), LRRKtide substrate
Method in brief: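 Ten-point compound series (highest 9.99 μM in DMSO) preincubated 15 min with 1.25 nM GST-tagged truncated human LRRK2 G2019S, then 90 min reaction at ambient temperature with 134 μM ATP (Km) and fluorescein-labelled LRRKtide, pH 8.5. Phosphorylation read as 520/495 nm emission ratio via Tb-labelled antibody; IC50 from 4P logistic regression.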

GST-tagged truncated human mutant G2019S LRRK2, sequence (Q5S007 970-2527 G2019S): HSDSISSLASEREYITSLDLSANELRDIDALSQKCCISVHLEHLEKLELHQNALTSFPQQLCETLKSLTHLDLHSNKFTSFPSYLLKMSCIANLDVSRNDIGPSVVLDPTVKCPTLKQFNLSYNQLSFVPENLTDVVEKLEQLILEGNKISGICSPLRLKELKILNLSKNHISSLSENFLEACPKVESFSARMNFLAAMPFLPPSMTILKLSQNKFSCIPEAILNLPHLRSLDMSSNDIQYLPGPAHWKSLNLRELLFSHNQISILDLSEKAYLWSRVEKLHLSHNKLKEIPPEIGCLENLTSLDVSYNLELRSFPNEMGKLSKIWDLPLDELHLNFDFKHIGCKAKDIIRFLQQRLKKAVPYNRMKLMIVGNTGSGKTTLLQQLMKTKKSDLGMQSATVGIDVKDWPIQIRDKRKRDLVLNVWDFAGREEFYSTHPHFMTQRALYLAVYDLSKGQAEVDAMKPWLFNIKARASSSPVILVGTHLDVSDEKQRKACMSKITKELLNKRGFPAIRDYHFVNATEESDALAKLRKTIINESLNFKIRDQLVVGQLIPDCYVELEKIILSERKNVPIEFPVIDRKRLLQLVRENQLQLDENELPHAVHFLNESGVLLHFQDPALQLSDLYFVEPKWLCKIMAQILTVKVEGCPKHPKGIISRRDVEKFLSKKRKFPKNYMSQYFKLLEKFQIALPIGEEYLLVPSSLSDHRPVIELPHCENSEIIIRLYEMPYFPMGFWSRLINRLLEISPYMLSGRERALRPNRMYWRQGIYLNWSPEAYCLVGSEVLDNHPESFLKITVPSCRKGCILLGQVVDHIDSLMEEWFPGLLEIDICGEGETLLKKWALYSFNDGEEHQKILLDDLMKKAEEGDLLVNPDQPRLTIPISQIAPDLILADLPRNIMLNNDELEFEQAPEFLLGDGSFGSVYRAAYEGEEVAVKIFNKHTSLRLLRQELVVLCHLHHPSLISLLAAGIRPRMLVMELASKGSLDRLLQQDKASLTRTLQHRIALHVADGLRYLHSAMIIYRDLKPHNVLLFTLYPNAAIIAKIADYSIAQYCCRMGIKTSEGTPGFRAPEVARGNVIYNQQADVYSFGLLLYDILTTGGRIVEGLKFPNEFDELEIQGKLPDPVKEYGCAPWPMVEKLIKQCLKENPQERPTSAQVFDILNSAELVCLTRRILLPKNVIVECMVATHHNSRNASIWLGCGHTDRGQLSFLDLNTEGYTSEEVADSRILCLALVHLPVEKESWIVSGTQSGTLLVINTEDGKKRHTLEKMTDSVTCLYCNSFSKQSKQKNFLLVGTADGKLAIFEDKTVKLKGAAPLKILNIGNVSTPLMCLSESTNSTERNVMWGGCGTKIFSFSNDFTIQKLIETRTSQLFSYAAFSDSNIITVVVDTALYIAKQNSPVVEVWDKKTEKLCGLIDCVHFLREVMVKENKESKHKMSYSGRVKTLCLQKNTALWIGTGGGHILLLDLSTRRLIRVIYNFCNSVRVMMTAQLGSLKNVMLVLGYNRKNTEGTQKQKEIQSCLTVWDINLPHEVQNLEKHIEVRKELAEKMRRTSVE

| SMILES | LRRK2 pIC50 |
| --- | --- |
| FC(F)(F)c1cnc2nc1NC1CCC1COc1c(C3CCOC3)nn(C3CCC3)c1N2 [Ex-2.65, (10aR,12aR)-3-cyclobutyl-1-((R)-(10aR,12aR)-3-cyclobutyl-1-((S)-(10aS,12aS)-3-cyclobutyl-1-((R)-(10aS,12aS)-3-cyclobutyl-1-((S)-tetrahydrofuran-3-yl)-8-(trifluoromethyl)-3,4,10,10a,11,12,12a,13-octahydro-5,9-(azeno)cyclobuta[k]pyrazolo[4,3-b][1]oxa[4,6,10]triazacyclotridecine] | 6.59 |
| Cc1nn(C2CCC2)c2c1OC[C@@H]1COC[C@H]1Nc1nc(ncc1F)N2 [Ex-2.66, (10aS,13aS)-3-cyclobutyl-8-fluoro-1-methyl-3,4,10a,11,13a,14-hexahydro-10H,13H-5,9-(azeno)furo[3,4-k]pyrazolo[4,3-b][1]oxa[4,6,10]triazacyclotridecine] | 8.43 |
| CCOC(=O)Cc1nn(C2CC2)c2c1OC[C@@H]1COC[C@H]1Nc1nc(ncc1C(F)(F)F)N2 [Ex-2.67, ethyl 2-((10aS,13aS)-3-cyclopropyl-8-(trifluoromethyl)-3,4,10a,11,13a,14-hexahydro-10H,13H-5,9-(azeno)furo[3,4-k]pyrazolo[4,3-b][1]oxa[4,6,10]triazacyclotridecin-1-yl)acetate] | 9.45 |
| Cc1nn(C2CC2)c2c1OC[C@@H]1CC[C@H]1Nc1nc(ncc1C(F)(F)F)N2 [Ex-2.68, (10aR,12aR)-3-cyclopropyl-1-methyl-8-(trifluoromethyl)-3,4,10,10a,11,12,12a,13-octahydro-5,9-(azeno)cyclobuta[k]pyrazolo[4,3-b][1]oxa[4,6,10]triazacyclotridecine] | >10.09 |
| Cn1cc(C2CC2c2nn(C3CCC3)c3c2OC[C@@H]2COC[C@H]2Nc2nc(ncc2C(F)(F)F)N3)cn1 (stereo partly drawn) [Ex-2.69, (10aS,13aS)-3-cyclobutyl-1-((1S,2S)- or (10aS,13aS)-3-cyclobutyl-1-((1R,2R)-2-(1-methyl-1H-pyrazol-4-yl)cyclopropyl)-8-(trifluoromethyl)-3,4,10a,11,13a,14-hexahydro-10H,13H-5,9-(azeno)furo[3,4-k]pyrazolo[4,3-b][1]oxa[4,6,10]triazacyclotridecine] | >10.09 |
| Cn1cc(C2CC2c2nn(C3CCC3)c3c2OC[C@@H]2COC[C@H]2Nc2nc(ncc2C(F)(F)F)N3)cn1 (stereo partly drawn) [Ex-2.70, (10aS,13aS)-3-cyclobutyl-1-((1S,2S)- or (10aS,13aS)-3-cyclobutyl-1-((IR,2R)-2-(1-methyl-1H-pyrazol-4-yl)cyclopropyl)-8-(trifluoromethyl)-3,4,10a,11,13a,14-hexahydro-10H,13H-5,9-(azeno)furo[3,4-k]pyrazolo[4,3-b][1]oxa[4,6,10]triazacyclotridecine] | 9.35 |
| FC(F)(F)c1cnc2nc1NC1CCC1COc1c(C3COC3)nn(C3CCC3)c1N2 [Ex-2.71, (10aR,12aR)- or (10aS,12aS)-3-cyclobutyl-1-(oxetan-3-yl)-8-(trifluoromethyl)-3,4,10,10a,11,12,12a,13-octahydro-5,9-(azeno)cyclobuta[k]pyrazolo[4,3-b][1]oxa[4,6,10]triazacyclotridecine] | 8.24 |
| FC(F)(F)c1cnc2nc1NC1CCC1COc1c(C3COC3)nn(C3CCC3)c1N2 [Ex-2.72, (10aR,12aR)- or (10aS,12aS)-3-cyclobutyl-1-(oxetan-3-yl)-8-(trifluoromethyl)-3,4,10,10a,11,12,12a,13-octahydro-5,9-(azeno)cyclobuta[k]pyrazolo[4,3-b][1]oxa[4,6,10]triazacyclotridecine] | >10.09 |
| Cc1nn(C2CCOC2)c2c1OC[C@@H]1CC[C@H]1Nc1nc(ncc1C(F)(F)F)N2 (stereo partly drawn) [Ex-2.74, (10aR,12aR)-1-methyl-3-((S)- or (10aR,12aR)-1-methyl-3-((R)-tetrahydrofuran-3-yl)-8-(trifluoromethyl)-3,4,10,10a,11,12,12a,13-octahydro-5,9-(azeno)cyclobuta[k]pyrazolo[4,3-b][1]oxa[4,6,10]triazacyclotridecine] | >10.09 |
| Cn1nc(C(F)(F)F)c2c1Nc1ncc(Cl)c(n1)N[C@@H]1COC[C@H]1CO2 [Ex-2.75, (10aS,13aS)-8-chloro-3-methyl-1-(trifluoromethyl)-3,4,10a,11,13a,14-hexahydro-10H,13H-5,9-(azeno)furo[3,4-k]pyrazolo[4,3-b][1]oxa[4,6,10]triazacyclotridecine] | 9.50 |
| COC1CC(n2nc(C)c3c2Nc2ncc(Cl)c(n2)N[C@@H]2CC[C@H]2CO3)C1 (stereo partly drawn) [Ex-2.77, (10aR,12aR)-8-chloro-3-(3-methoxycyclobutyl)-1-methyl-3,4,10,10a,11,12,12a,13-octahydro-5,9-(azeno)cyclobuta[k]pyrazolo[4,3-b][1]oxa[4,6,10]triazacyclotridecine] | >10.09 |
| COC1CC(n2nc(C)c3c2Nc2ncc(C(F)(F)F)c(n2)N[C@@H]2CC[C@H]2CO3)C1 (stereo partly drawn) [Ex-2.78, (10aR,12aR)-3-(3-methoxycyclobutyl)-1-methyl-8-(trifluoromethyl)-3,4,10,10a,11,12,12a,13-octahydro-5,9-(azeno)cyclobuta[k]pyrazolo[4,3-b][1]oxa[4,6,10]triazacyclotridecine] | >10.09 |
| Cc1nn(C2CCC2)c2c1OC1COC[C@H]1CNc1nc(ncc1C(F)(F)F)N2 (stereo partly drawn) [Ex-2.79, (11aR,14aR)-3-cyclobutyl-1-methyl-8-(trifluoromethyl)-3,4,10,11,11a,12,14,14a-octahydro-5,9-(azeno)furo[3,4-1]pyrazolo [4,3-b][1]oxa[4,6,10]triazacyclotridecine (11aS,14aS)-3-cyclobutyl-1-methyl-8-(trifluoromethyl)-3,4,10,11,11a,12,14,14a-octahydro-5,9-(azeno)furo[3,4-1]pyrazolo[4,3-b][1]oxa[4,6,10]triazacyclotridecine] | 6.87 |
| Cc1nn(C2CCC2)c2c1OC1COC[C@H]1CNc1nc(ncc1C(F)(F)F)N2 (stereo partly drawn) [Ex-2.80, (11aR,14aR)-3-cyclobutyl-1-methyl-8-(trifluoromethyl)-3,4,10,11,11a,12,14,14a-octahydro-5,9-(azeno)furo[3,4-1]pyrazolo [4,3-b][1]oxa[4,6,10]triazacyclotridecine (11aS,14aS)-3-cyclobutyl-1-methyl-8-(trifluoromethyl)-3,4,10,11,11a,12,14,14a-octahydro-5,9-(azeno)furo[3,4-1]pyrazolo[4,3-b][1]oxa[4,6,10]triazacyclotridecine] | 7.57 |
| Cc1nn(C2CCC2)c2c1OC1COC[C@@H]1CNc1nc(ncc1Cl)N2 (stereo partly drawn) [Ex-2.83, (11aR,14aR)- or (11aS,14aS) 8-chloro-3-cyclobutyl-1-methyl-3,4,10,11,11a,12,14,14a-octahydro-5,9-(azeno)furo[3,4-1]pyrazolo[4,3-b][1]oxa[4,6,10]triazacyclotridecine] | 5.76 |
| Cc1nn(C2CCC2)c2c1OC1COC[C@@H]1CNc1nc(ncc1Cl)N2 (stereo partly drawn) [Ex-2.84, (11aR,14aR)- or (11aS,14aS) 8-chloro-3-cyclobutyl-1-methyl-3,4,10,11,11a,12,14,14a-octahydro-5,9-(azeno)furo[3,4-1]pyrazolo[4,3-b][1]oxa[4,6,10]triazacyclotridecine] | 8.77 |
| Cc1nn(C2CC2)c2c1O[C@@H]1CC[C@@H]1CNc1nc(ncc1C(F)(F)F)N2 [Ex-2.85, (11aR,13aR)- or (11aS,13aS)-3-cyclopropyl-1-methyl-8-(trifluoromethyl)-3,4,10,11,11a,12,13,13a-octahydro-5,9-(azeno)cyclobuta[I]pyrazolo[4,3-b][1]oxa[4,6,10]triazacyclotridecine] | 8.74 |
| Cc1nn(C2CC2)c2c1O[C@@H]1CC[C@@H]1CNc1nc(ncc1C(F)(F)F)N2 [Ex-2.86, (11aR,13aR)- or (11aS,13aS)-3-cyclopropyl-1-methyl-8-(trifluoromethyl)-3,4,10,11,11a,12,13,13a-octahydro-5,9-(azeno)cyclobuta[l]pyrazolo[4,3-b][1]oxa[4,6,10]triazacyclotridecine] | 8.13 |
| Cc1nn(C)c2c1OC[C@@H]1CCC(C1)Nc1nc(ncc1C(F)(F)F)N2 [Ex-2.87, (5^1S,5^3R)-1^1,1^3-dimethyl-3^5-(trifluoromethyl)-1^1H-7-oxa-2,4-diaza-3(2,4)-pyrimidina-1(5,4)-pyrazola-5(1,3)-cyclopentanacycloheptaphane] | 6.84 |
| Cc1nn(C)c2c1OC[C@H]1CCC(C1)Nc1nc(ncc1C(F)(F)F)N2 [Ex-2.88, (5^1R,5^3S)-1^1,1^3-dimethyl-3^5-(trifluoromethyl)-1^1H-7-oxa-2,4-diaza-3(2,4)-pyrimidina-1(5,4)-pyrazola-5(1,3)-cyclopentanacycloheptaphane] | 7.64 |
| Cc1nn(C2CCC2)c2c1OC[C@H]1CC(F)(F)C[C@@H]1Nc1nc(ncc1C(F)(F)F)N2 [Ex-4.1, 3-Cyclobutyl-12,12-difluoro-1-methyl-8-(trifluoromethyl)-3,4,10a,11,12,13,13a,14-octahydro-10H-5,9-(azeno)cyclopenta[k]pyrazolo[4,3-b][1]oxa[4,6,10]triazacyclotridecine] | 6.25 |
| Cc1nn(C2CCC2)c2c1OC[C@@H]1CC(F)(F)C[C@H]1Nc1nc(ncc1C(F)(F)F)N2 [Ex-4.2, 3-Cyclobutyl-12,12-difluoro-1-methyl-8-(trifluoromethyl)-3,4,10a,11,12,13,13a,14-octahydro-10H-5,9-(azeno)cyclopenta[k]pyrazolo[4,3-b][1]oxa[4,6,10]triazacyclotridecine] | 9.51 |
| Cc1nn(C2CCC2)c2c1OC[C@@H]1COC[C@H]1Nc1nc(ncc1C(F)(F)F)N2 [Ex-5.1, (10aS,13aS)-3-cyclobutyl-1-methyl-8-(trifluoromethyl)-3,4,10a,11,13a,14-hexahydro-10H,13H-5,9-(azeno)furo[3,4-k]pyrazolo[4,3-b][1]oxa[4,6,10]triazacyclotridecine] | >10.09 |
